In PMC8667045, “Into Deep Water: Optimizing BCL6 Inhibitors by Growing into a Solvated Pocket” (Journal of Medicinal Chemistry, 2021):
≈ marks a conversion by molar mass, not a printed value. Where “and” joins values, the source holds several entries; their conditions need not be identical. Equal values may be shown once. Read-outs that look alike come from different tables or passages of the source.

Experiments:
[1] = molecular target: T1, BCL6 BTB domain (Homo sapiens, UniProt P41182); assay: biochemical; conditions: for BCL6 TR-FRET pIC50 mean: mean of n replicates
Procedure: Supplementary experimental: protein production, purification and crystallography
3C protease cleavage site.
used without cleaving the tag, as a 6His was needed to bind to the anti-6His-Terbium antibody. For
For both plasmid constructs described above, transformed BL21-AI E. coli cells were grown in LB
carried out at 18 °C for 18 hours. Cells were harvested by centrifugation (5500 g for 30 minutes at 4
oC) and stored at -80 °C.
Cells were re-suspended in a buffer composed of 20 mM Tris pH 8, 250 mM NaCl, 1 mM MgCl2, 0.5
Cells were lysed by sonication followed by centrifugation at 21,000 g for 45 minutes at 4 °C. […]
The final protein was assessed for purity
and molar mass by SDS-PAGE and high-resolution mass spectrometry, respectively.
(§1) directly eluted from the HisTrap FF column without HRV-3C treatment, and submitted to Superdex75
gel filtration as described above. […]
2. Supplementary experimental: biological assay conditions
IC50 values were determined using
a sigmoidal four-parameter logistic fit equation.

[2] = HPLC solubility assay; format: physicochemical; conditions: PBS buffer, PBS pH 7.4, 1% DMSO, room temperature
Procedure: 3. Supplementary experimental: physicochemical assays […]
3.2 HPLC solubility assay
DMSO. Following shaking of the suspension on a Bohdan Shaker at 500 rpm for 2 hours at room […]
200 µL of the supernatant was transferred to a 2 mL Agilent vial containing 50 µL of DMSO (Sigma […]
detection using an external standard which was prepared by pipetting 10 µL of the same batch of […]
The detail of the HPLC method is as following: chromatographic separation at 30°C is carried out over a 5 minute gradient elution method from 90:10 to 10:90 water:methanol (both modified with 0.1% formic acid) at a flow rate of 1.5 mL/min. Calibration curve is prepared by injecting 0.5, 2.5, and 5 µL of compound external standard.
62.5 µL of compound solubility sample.

[3] = PAMPA passive permeability pH 7.4; conditions: for PAMPA7.4: pH 7.4, passive permeability Pe
[4] = molecular target: T1, BCL6 BTB domain; assay: Rapid X-ray screen: ligand density in extended pocket of BCL6 BTB domain; set-up: made in house; host or cells: E. coli BL21-AI; conditions: crystals soaked with compound
From the text: Furthermore, we speculated that these represent better starting points since the substituent can be modified further to derive additional interactions and more completely fill the extended pocket. […] Instead, we just checked for the presence of ligand density and, in particular, for electron density in the extended pocket.
as §1
gel filtration as described above.
NH2. A stock solution of WVIP peptide at 100 mM in 100 % DMSO was added to a 2 mg/mL solution
This mixture was then concentrated to a final
protein concentration of 4 mg/mL using a centrifugal concentrator with a 3 kDa molecular weight
complex plus 1 μL of a crystallisation solution consisting of 1 M K 2HPO4, 0.7 M NaH2PO4, 75 mM
drops, followed by 10-120 minutes incubation. Crystals were then cryo-protected in a solution
composed of the crystallisation reagent supplemented with 30 % ethylene glycol and cryo-cooled in
concentrated to a final protein concentration of 10 mg/mL using a centrifugal concentrator with a 3
kDa molecular weight cut-off. Crystals were grown at 18 °C in hanging drops composed of 1.5 μL of
and 0.80 M Na/K Tartrate, against 300 μL of crystallisation solution.
and compounds were soaked as described above for the other construct. Crystals were then cryo-
protected in a solution composed of the crystallisation reagent supplemented with 30 % ethylene
glycol and cryo-cooled in liquid nitrogen.
1.5 Crystallographic data collection, processing and refinement
X-ray data were collected at Diamond Light Source, Harwell campus, Oxfordshire, UK, on beamlines
Research, London, UK, on a Rigaku FRX-AFC11-VariMax Cu-VHF-Pilatus300K. Crystals obtained with […]

[5] = NMR solubility assay; format: physicochemical; conditions: HEPES buffer, 5% DMSO, room temperature
Procedure: 3. Supplementary experimental: physicochemical assays
The plate was then sealed and incubated at room temperature for 20 hours, without shaking. The plate was centrifuged again for 1 minute at […]
spectrometer equipped with a 5 mm TCI-CryoProbe. […]
deuterated solvent. […] All NMR data were acquired at the […]
contained 16k time-domain data points. Relaxation delay was set to 20 sec. […]

[6] = Measured logD7.4; format: physicochemical; conditions: pH 7.4
[7] = TR-FRET IC50 individual replicates, single replicates, italic values used 10nM BCL6, otherwise 1nM BCL6
[8] = read-out: BCL6 TR-FRET Geo Mean IC50, geometric mean of n replicates, supplement
[9] = read-out: TR-FRET IC50, tables and figures
[10] = read-out: TR-FRET IC50 individual replicates, single replicates, italic values used 10nM BCL6, otherwise 1nM BCL6

Row | Compound | IC50 [1, 7] | BCL6 TR-FRET pIC50 mean [1] | IC50 [1, 8] [nM] | IC50 [1, 9] | solubility at 2 h [2] [µM] | PAMPA7.4 [3] | IC50 [1, 10] [nM] | Ligand density in extended pocket [4] | Papp ([3]; PAMPA, pH 7.4) [×10⁻⁶ cm/s] | solubility at 20 h [5] [µM] | logD [6]
1 | Cn1c(=O)ccc2cc(Nc3ccnc(Cl)c3C#N)ccc21 [Compound 2, 2-Chloro-4-((1-methyl-2-oxo-1,2-dihydroquinolin-6-yl)amino)nicotinonitrile] | 2280 nM and 4290 nM and 4070 nM and 1380 nM | 5.57 and 5.565 | 2720 | 2700 nM and 2720 nM | 12 (≈ 3.73 µg/mL) |  |  |  |  |  | 
2 | CC(Nc1cc(=O)n(C)c2ccc(Nc3ccnc(Cl)c3C#N)cc12)c1ncco1 (stereo not drawn) [Compound 13b, 2-Chloro-4-((1-methyl-4-((1-(oxazol-2-yl)ethyl)amino)-2-oxo-1,2-dihydroquinolin-6-yl)amino)nicotinonitrile] |  |  |  |  | 2.8 (≈ 1.18 µg/mL) | 1.0 x10^-6 cms^-1 |  |  |  |  | 
3 | Cn1c(=O)n(C)c2cc(Nc3ccnc(Cl)c3C#N)ccc21 [Compound 1] |  |  |  |  | 16 (≈ 5.02 µg/mL) |  |  |  |  |  | 
4 | CN(C)c1cc(=O)[nH]c2ccc(Nc3ccnc(Cl)c3C#N)cc12 [Compound 8a, 2-Chloro-4-((4-(dimethylamino)-2-oxo-1,2-dihydroquinolin-6-yl)amino)nicotinonitrile] | 7010 nM and 4460 nM | 5.25 and 5.254 | 5570 | 5570 nM |  |  | 5520 | No |  |  | 
5 | CNC(=O)C(C)Nc1cc(=O)[nH]c2ccc(Nc3ccnc(Cl)c3C#N)cc12 (stereo not drawn) [Compound 12a, 2-((6-((2-Chloro-3-cyanopyridin-4-yl)amino)-2-oxo-1,2-dihydroquinolin-4-yl)amino)-N-methylpropanamide] | 620 nM and 490 nM and 580 nM and 510 nM and 660 nM and 470 nM and 460 nM and 500 nM and 740 nM and 480 nM and 650 nM | 6.26 and 6.258 | 552 | 550 nM | 37 (≈ 14.7 µg/mL) |  |  |  | < 0.2 |  | 
6 | Cn1c(=O)cc(NC(C)(C)c2ncccn2)c2cc(Nc3ccnc(Cl)c3C#N)ccc21 [Compound 13g, 2-Chloro-4-((1-methyl-2-oxo-4-((2-(pyrimidin-2-yl)propan-2-yl)amino)-1,2-dihydroquinolin-6-yl)amino)nicotinonitrile] |  |  |  |  |  | 1.8 x10^-6 cms^-1 |  |  |  | 15 (≈ 6.69 µg/mL) | 1.9
7 | CNC(=O)CNc1cc(=O)[nH]c2ccc(Nc3ccnc(Cl)c3C#N)cc12 [Compound 12e, 2-((6-((2-Chloro-3-cyanopyridin-4-yl)amino)-2-oxo-1,2-dihydroquinolin-4-yl)amino)-N-methylacetamide] | 19900 nM and 74100 nM and 10200 nM and 22400 nM | 4.62 and 4.623 | 23800 | 23800 nM | 35 (≈ 13.4 µg/mL) |  | 22800 |  |  |  | 
8 | CC(Nc1cc(=O)n(C)c2ccc(Nc3ccnc(Cl)c3C#N)cc12)c1ncccn1 (stereo not drawn) [Compound 13e, 2-Chloro-4-((1-methyl-2-oxo-4-((1-(pyrimidin-2-yl)ethyl)amino)-1,2-dihydroquinolin-6-yl)amino)nicotinonitrile] |  |  |  |  |  | 1.4 x10^-6 cms^-1 |  |  |  | 249 (≈ 108 µg/mL) | 1.4
9 | CCNc1cc(=O)[nH]c2ccc(Nc3ccnc(Cl)c3C#N)cc12 [Compound 8f, 2-Chloro-4-((4-(ethylamino)-2-oxo-1,2-dihydroquinolin-6-yl)amino)nicotinonitrile] | 1660 nM and 680 nM and 1950 nM and 1130 nM and 1050 nM and 1910 nM | 5.883 | 1310 | 1310 nM |  |  |  | Yes |  |  | 
10 | N#Cc1c(Nc2ccc3[nH]c(=O)cc(N4CCCCC4)c3c2)ccnc1Cl [Compound 8b, 2-Chloro-4-((2-oxo-4-(piperidin-1-yl)-1,2-dihydroquinolin-6-yl)amino)nicotinonitrile] | 1570 nM and 1240 nM and 920 nM and 540 nM and 2320 nM | 5.93 and 5.929 | 1180 | 1180 nM |  |  |  | No |  |  | 
